The results in this text go back to patent US20260337153A1, “IONIZABLE AMINE LIPIDS” (Intellia Therapeutics, Inc., priority 2023, published 2026).

In the assay the test system is rat TTR gene. The assay can be described thus: In vivo editing of TTR in rat liver after LNP delivery (NGS, % editing). The arrangement: species or system rat (Sprague-Dawley). The procedure:
LNPs were prepared using various amine lipids in a 4-component lipid system consisting of an ionizable lipid (e.g., an amine lipid), DSPC, cholesterol and a PEG lipid (e.g., PEG2K-DMG, C13 Ether, C14 Ether). In assays for percent liver editing in rats, Cas9 mRNA and chemically modified sgRNA targeting a rat sequence were formulated in LNPs, at either a 1:1 w/w ratio or a 1:2 w/w sgRNA:Cas9 mRNA ratio.
The lipid components were dissolved in 100% ethanol with the lipid component molar ratios described below. The chemically modified sgRNA and Cas9 mRNA were combined and dissolved in 25 mM citrate, 100 mM NaCl, pH 5.0, resulting in a concentration of total RNA cargo of approximately 0.45 mg/mL. The LNPs were formulated with an N:P ratio of about 6, with the ratio of chemically modified sgRNA:Cas9 mRNA at either a 1:1 or 1:2 w/w ratio as described below.
The LNPs were formed by an impinging jet mixing of the lipid in ethanol with two volumes of RNA solution and one volume of water. First, the lipid in ethanol is mixed through a mixing cross with the two volumes of RNA solution. Then, a fourth stream of water is mixed with the outlet stream of the cross through an inline tee. (See, e.g., WO2016010840, FIG. 2). The LNPs were held for 1 hour at room temperature, and further diluted with water (approximately 1:1 v/v). Diluted LNPs were buffer exchanged into 50 mM Tris, 45 mM NaCl, 5% (w/v) sucrose, pH 7.5 (TSS) and concentrated as needed by methods known in the art. The resulting mixture was then filtered using a 0.2 μm sterile filter. The final LNP was stored at 4° C. or −80° C. until further use.
Sprague-Dawley female rats, ranging from 6-10 weeks of age were used in each study. Animals were weighed and dosed based on individual body weight measured the morning of dosing. LNPs were dosed via the lateral tail vein in a volume of 2 mL per kilogram of animal body weight. The animals were periodically observed for adverse effects for at least 24 hours post dose.
For studies measuring in vivo editing in liver, Sprague-Dawley female rats were dosed at 0.1 mpk or 0.03 mpk, unless otherwise noted. Animals were euthanized at 6 or 7 days by carbon dioxide asphyxiation and a heart clip or by ex sanguination via cardiac puncture under isoflourane anesthesia. Blood was collected into serum separator tubes. Liver tissue was collected. Genomic DNA was isolated from the liver tissue for editing measurement by Next-Generation Sequencing (NGS).
In brief, to quantitatively determine the efficiency of editing at the target location in the genome, genomic DNA was isolated and deep sequencing was utilized to identify the presence of insertions and deletions introduced by gene editing.
PCR primers were designed around the target site (e.g., TTR), and the genomic area of interest was amplified. Additional PCR was performed according to the manufacturer's protocols (Illumina) to add the necessary chemistry for sequencing. The amplicons were sequenced on an Illumina MiSeq instrument. The reads were aligned to the […] after eliminating those having low quality scores. The resulting files containing the reads were mapped to the reference genome (BAM files), where reads that overlapped the target region of interest were selected and the number of wild type reads versus the number of reads which contain an insertion, substitution, or deletion was calculated.
The editing percentage (e.g., the “indel efficiency” or “percent indels” or “% editing” or “% indel”) can be defined as the total number of sequence reads with insertions or deletions over the total number of sequence reads, including wild type.
In vivo editing efficiency for materials delivered with formulations including various amine lipid (or ionizable lipid) compounds in Experiments 1 through 14 as described in Tables 3 and 4 was assessed. Editing was measured using G000534 (SEQ ID NO: 5) which targets the rat TTR gene. […]

[1] abbreviates: Experiment 3, 0.1 mpk, LNP with PEG2K-DMG.
Setting [2] is: Experiment 2, 0.1 mpk, LNP with PEG2K-DMG.
Setting [3] is: Experiment 14, 0.03 mpk, LNP with C13 Ether.
Setting [4] is: Experiment 4, 0.1 mpk, LNP with PEG2K-DMG.
Where [5] appears, read: Experiment 9, 0.1 mpk, LNP with PEG2K-DMG.

`CCCCCCCCOC(CCC(=O)OCC(COC(=O)CCC(OCCCCCCCC)OCCCCCCCC)COC(=O)OCCCN(CC)CC)OCCCCCCCC` [Compound 1, 2-((((3-(diethylamino)propoxy)carbonyl)oxy)methyl)propane-1,3-diyl bis(4,4-bis(octyloxy)butanoate)] returned a Mean % editing under setting [1] of 52.4%.

With `CCCCCCCCC(CCCCCCCC)OC(=O)CCCC(=O)OCC(COC(=O)CCCC(=O)OC(CCCCCCCC)CCCCCCCC)COC(=O)OCCCN(CC)CC` [Compound 2, O,O′-(2-((((3-(diethylamino)propoxy)carbonyl)oxy)methyl)propane-1,3-diyl) di(heptadecan-9-yl) diglutarate], the Mean % editing is, setting by setting: under setting [2], 59.8%; under setting [1], 38.3%; under setting [3], 21.2%.

Under setting [2], `CCCCCCCCC(CCCCCCCC)OC(=O)CCCCCC(=O)OCC(COC(=O)CCCCCC(=O)OC(CCCCCCCC)CCCCCCCC)COC(=O)OCCCN(CC)CC` [Compound 3, O′1,O1-(2-((((3-(diethylamino)propoxy)carbonyl)oxy)methyl)propane-1,3-diyl) 7,7′-di(heptadecan-9-yl) di(heptanedioate)] came in with a Mean % editing of 53.0%. For the compound `CCCCC/C=C\C/C=C\CCCCCCCC(=O)OCC(COC(=O)CCCCCC(=O)OCC(CCCC)CCCCCC)COC(=O)OCCCN(CC)CC` (stereo not drawn) [Compound 4, 1-(2-butyloctyl) 7-(3-(((3-(diethylamino)propoxy)carbonyl)oxy)-2-((((9Z,12Z)-octadeca-9,12-dienoyl)oxy)methyl)propyl) heptanedioate], the Mean % editing was 27.2% under setting [2] and 29.7% under setting [1]. As to `CCCCCCC(CCCC)COC(=O)CCCCCC(=O)OCC(COC(=O)CCCCCC(=O)OCC(CCCC)CCCCCC)COC(=O)OCCCN(CC)CC` (stereo not drawn) [Compound 5, 7,7′-bis(2-butyloctyl) O′1,O1-(2-((((3-(diethylamino)propoxy)carbonyl)oxy)methyl)propane-1,3-diyl) di(heptanedioate)], the Mean % editing under setting [2] came to 52.0%. Regarding `CCCCCCCCC(CCCCCCCC)OC(=O)CCCC(=O)OCC(COC(=O)CCCC(=O)OC(CCCCCCCC)CCCCCCCC)COC(=O)NCCN(CC)CC` [Compound 6, O,O′-(2-((((2-(diethylamino)ethyl)carbamoyl)oxy)methyl)propane-1,3-diyl) di(heptadecan-9-yl) diglutarate], the Mean % editing by setting is: (Experiment 12, 0.04 mpk, LNP with PEG2K-DMG) 36.3%; (Experiment 13, 0.03 mpk, LNP with PEG2K-DMG) 25.0%; under setting [3], 22.4%; (Table 6, 0.03 mpk, PEG lipid C13 Ether) 27.4%; (Table 6, 0.03 mpk, PEG lipid C14 Ether) 18.9%; (Table 6, 0.03 mpk, PEG lipid PEG2K-DMG) 26.8%. This compound also had a Mean % editing (Table 8, 0.03 mpk, LNP with C13 Ether) of 41.7%. Further, the “Mean % editing in rat liver” value (NGS, dose 0.03 mpk, LNP with G000534 sgRNA and Cas9 mRNA 1:2 w/w, 3% C13 Ether (Compound 53: 3% PEG2K-DMG), N=5 (Compound 33: N=4)) is on record as 30.4%. As for `CCCCC/C=C\C/C=C\CCCCCCCC(=O)OCC(CCCCCCCCC(=O)OCC(CCCC)CCCCCC)COC(=O)OCCCN(CC)CC` (stereo not drawn) [Compound 7, 11-((2-butyloctyl)oxy)-2-((((3-(diethylamino)propoxy)carbonyl)oxy)methyl)-11-oxoundecyl (9Z,12Z)-octadeca-9,12-dienoate], under setting [1], the Mean % editing worked out at 30.0%. `CCCCCCCCC(CCCCCCCC)OC(=O)CCCCCCC(COC(=O)CCCC(=O)OC(CCCCCCCC)CCCCCCCC)COC(=O)OCCCN(CC)CC` (stereo not drawn) [Compound 8, 2-((((3-(diethylamino)propoxy)carbonyl)oxy)methyl)-9-(heptadecan-9-yloxy)-9-oxononyl heptadecan-9-yl glutarate] yielded a Mean % editing under setting [1] of 20.8%. In the case of `CCCCC/C=C\C/C=C\CCCCCCCC(=O)OCC(CCCCCCCCC(=O)OC(CCCCCCCC)CCCCCCCC)COC(=O)OCCCN(CC)CC` (stereo not drawn) [Compound 9, 2-((((3-(diethylamino)propoxy)carbonyl)oxy)methyl)-11-(heptadecan-9-yloxy)-11-oxoundecyl (9Z,12Z)-octadeca-9,12-dienoate], the Mean % editing by setting is: under setting [1], 5.3%; under setting [4], 9.6%; under setting [5], 4.3%. `CCCCC/C=C\C/C=C\CCCCCCCC(=O)OCC(CCCCCCCCC(=O)OC(CCCCCCCC)CCCCCCCC)COC(=O)NCCN(CC)CC` (stereo not drawn) [Compound 10, 2-((((2-(diethylamino)ethyl)carbamoyl)oxy)methyl)-11-(heptadecan-9-yloxy)-11-oxoundecyl (9Z,12Z)-octadeca-9,12-dienoate] registered a Mean % editing under setting [4] of 35.3%. On the same count and under the same terms, the value for `CCCCC/C=C\C/C=C\CCCCCCCC(=O)OCC(CCCCCCCCC(=O)OC(CCCCCCCC)CCCCCCCC)COC(=O)OCCCN(C)CC` (stereo not drawn) [Compound 11, 2-((((3-(ethyl(methyl)amino)propoxy)carbonyl)oxy)methyl)-11-(heptadecan-9-yloxy)-11-oxoundecyl (9Z,12Z)-octadeca-9,12-dienoate] was 14.0%; that for `CCCCC/C=C\C/C=C\CCCCCCCC(=O)OCC(CCCCC(=O)OC(CCCC)CCCC)COC(=O)NCCN(CC)CC` (stereo not drawn) [Compound 12, 2-((((2-(diethylamino)ethyl)carbamoyl)oxy)methyl)-7-(nonan-5-yloxy)-7-oxoheptyl (9Z,12Z)-octadeca-9,12-dienoate] was 11.6%; that for `CCCCC/C=C\C/C=C\CCCCCCCC(=O)OCC(CCCCC(=O)OC(CCCC)CCCC)COC(=O)OCCCN(C)CC` (stereo not drawn) [Compound 13, 2-((((3-(ethyl(methyl)amino)propoxy)carbonyl)oxy)methyl)-7-(nonan-5-yloxy)-7-oxoheptyl (9Z,12Z)-octadeca-9,12-dienoate] was 20.9%.

With `CCCCC/C=C\C/C=C\CCCCCCCC(=O)OCC(CCCCC(=O)OC(CCCC)CCCC)COC(=O)OCCCN(CC)CC` (stereo not drawn) [Compound 14, 2-((((3-(diethylamino)propoxy)carbonyl)oxy)methyl)-7-(nonan-5-yloxy)-7-oxoheptyl (9Z,12Z)-octadeca-9,12-dienoate], the Mean % editing under setting [4] is reported as 16.8%. In turn, `CCCCC/C=C\C/C=C\CCCCCCCC(=O)OCC(CCCCC(=O)OC(CCCCCCCC)CCCCCCCC)COC(=O)OCCCN(CC)CC` (stereo not drawn) [Compound 15, 2-((((3-(diethylamino)propoxy)carbonyl)oxy)methyl)-7-(heptadecan-9-yloxy)-7-oxoheptyl (9Z,12Z)-octadeca-9,12-dienoate] gave a Mean % editing under setting [5] of 15.1%. Same read-out and setting: as for `CCCCC/C=C\C/C=C\CCCCCCCC(=O)OCC(CCCCCCC(=O)OC(CCCCCCCC)CCCCCCCC)COC(=O)OCCCN(CC)CC` (stereo not drawn) [Compound 16, 2-((((3-(diethylamino)propoxy)carbonyl)oxy)methyl)-9-(heptadecan-9-yloxy)-9-oxononyl (9Z,12Z)-octadeca-9,12-dienoate], the figure is 14.9%. The same measure, in the same setting: the value for `CCCCC/C=C\C/C=C\CCCCCCCC(=O)OCC(CCCCC(=O)OC(CCCCCC)CCCCCC)COC(=O)OCCCN(CC)CC` (stereo not drawn) [Compound 17, 2-((((3-(diethylamino)propoxy)carbonyl)oxy)methyl)-7-oxo-7-(tridecan-7-yloxy)heptyl (9Z,12Z)-octadeca-9,12-dienoate] was 35.8%. Take `CCCCC/C=C\C/C=C\CCCCCCCC(=O)OCC(CCCCCCC(=O)OC(CCCCCC)CCCCCC)COC(=O)OCCCN(CC)CC` (stereo not drawn) [Compound 18, 2-((((3-(diethylamino)propoxy)carbonyl)oxy)methyl)-9-oxo-9-(tridecan-7-yloxy)nonyl (9Z,12Z)-octadeca-9,12-dienoate]: the Mean % editing under setting [5] came out at 34.4%.
